# Assay results: patent US12091425B2 (AMGEN INC., priority 2016, dated 2024)
# “And” between values parts separate entries of the source, which are not always exact repeats. Identical values can stand only once. Like-named read-outs stand apart in the source and are kept apart here.
# Columns and labels:
# [1] = 16-membered ring
# [2] = target: T1, Mcl-1/Bim interaction, recombinant human Mcl-1 (171-327) (Homo sapiens, UniProt Q07820); experiment: Cell free Mcl-1: Bim Affinity Assay (Mcl-1 HTRF); assay type: binding
# T1 construct: made in house
# T1 sequence (Q07820 171-327): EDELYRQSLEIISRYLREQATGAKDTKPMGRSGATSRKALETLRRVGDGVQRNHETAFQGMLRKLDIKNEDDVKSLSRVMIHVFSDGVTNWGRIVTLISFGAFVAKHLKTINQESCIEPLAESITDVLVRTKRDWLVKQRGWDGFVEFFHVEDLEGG
# Summary of the method: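 Read-out is time-resolved FRET after overnight incubation, using a biotin-labelled peptide from human Bim (51-76) as the binding partner; IC50 was derived from competition curves.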
# [3] = test system: OPM-2 human multiple myeloma cell line; experiment: Cell Viability Assay (OPM-2 10 FBS); assay type: cell-based; conditions: OPM-2 cells, 16 h, CellTiter-Glo
# Summary of the method: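 IC50 from 4-parameter logistic fit of CellTiter-Glo luminescence. 3000 cells/well, 10% FBS medium, serial compound dilutions, 16 h, 37 °C/5% CO2; read 25 min post-reagent.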
# [4] = cell free Mcl-1:Bim TR-FRET, recombinant human Mcl-1 (171-327)
compound,measurement,setting,value
"(1S,3′R,6′R,7′S,8′Z,12′S)-12′-((2R)-2-((tert-butyl(diphenyl)silyl)oxy)propyl)-6-chloro-7′-hydroxy-3,4-dihydro-2H,15′H-spiro[naphthalene-1,22′-[20]oxa[13]thia[1,14]diazatetracyclo[14.7.2.0^3,6.0^19,24]pentacosa[8,16,18,24]tetraen]-15′-one 13′,13′-dioxide or (1S,3′R,6′R,7′S,8′Z,12′R)-12′-((2R)-2-((tert-butyl(diphenyl)silyl)oxy)propyl)-6-chloro-7′-hydroxy-3,4-dihydro-2H,15′H-spiro[naphthalene-1,22′-[20]oxa[13]thia[1,14]diazatetracyclo[14.7.2.0^3,6.0^19,24]pentacosa[8,16,18,24]tetraen]-15′-one 13′,13′-dioxide","ring closure, isolated yield","[1]; rcm bond, Hoveyda-Grubbs II (10 mol%), DCM, 1.5 mM, 45.0 °C",30%
"(1S,3′R,6′R,7′S,8′E,12′R)-12′-((2S)-2-((tert-butyl(diphenyl)silyl)oxy)propyl)-6-chloro-7′-hydroxy-3,4-dihydro-2h,15′h-spiro[naphthalene-1,22′-[20]oxa[13]thia[1,14]diazatetracyclo[14.7.2.0^3,6.0^19,24]pentacosa[8,16,18,24]tetraen]-15′-one 13′,13′-dioxide or (1S,3′R,6′R,7′S,8′E,12′S)-12′-((2S)-2-((tert-butyl(diphenyl)silyl)oxy)propyl)-6-chloro-7′-hydroxy-3,4-dihydro-2h,15′h-spiro[naphthalene-1,22′-[20]oxa[13]thia[1,14]diazatetracyclo[14.7.2.0^3,6.0^19,24]pentacosa[8,16,18,24]tetraen]-15′-one 13′,13′-dioxide","ring closure, isolated yield","[1]; rcm bond, Hoveyda-Grubbs II, DCM, 2.7 mM, 45.0 °C",32%
O=C1NS(=O)(=O)C2CC(/C=C/[C@H](O)[C@@H]3CC[C@H]3CN3C[C@@]4(CCCc5cc(Cl)ccc54)COc4ccc1cc43)C2,"ring closure, isolated yield","[1]; from NS(=O)(=O)C1CC(/C=C/[C@H](O)[C@@H]2CC[C@H]2CN2C[C@@]3(CCCc4cc(Cl)ccc43)COc3ccc(C(=O)O)cc32)C1, amide bond, EDC/DMAP, DCM, 2.0 mM",3.3% and 22%
"CN1CC=CCS(=O)(=O)NC(=O)c2ccc3c(c2)N(C[C@@H]2CC[C@H]2C1=O)C[C@@]1(CCCc2cc(Cl)ccc21)CO3 (single isomer, unassigned)","ring closure, isolated yield","[1]; from C=CCN(C)C(=O)[C@@H]1CC[C@H]1CN1C[C@@]2(CCCc3cc(Cl)ccc32)COc2ccc(C(=O)NS(=O)(=O)CC=C)cc21, rcm bond, Hoveyda-Grubbs II, toluene, 1.0 mM, 1.5 h",48%
C[C@H]1CC=C[C@H](O)[C@@H]2CC[C@H]2CN2C[C@@]3(CCCc4cc(Cl)ccc43)COc3ccc(cc32)C(=O)NS(=O)(=O)N1CC1CC1,"ring closure, isolated yield","[1]; from C=CC[C@H](C)N(CC1CC1)S(=O)(=O)NC(=O)c1ccc2c(c1)N(C[C@@H]1CC[C@H]1[C@@H](O)C=C)C[C@@]1(CCCc3cc(Cl)ccc31)CO2, rcm bond, Hoveyda-Grubbs II, 1,2-dichloroethane, 1.5 mM, 50.0 °C, 24.0 h",45%
C[C@]12CC[C@@H]1CN1C[C@@]3(CCCc4cc(Cl)ccc43)COc3ccc(cc31)C(=O)NS(=O)(=O)CC/C=C/C[C@@H]2O,"ring closure, isolated yield","[1]; from C=CCCS(=O)(=O)NC(=O)c1ccc2c(c1)N(C[C@@H]1CC[C@@]1(C)[C@@H](O)CC=C)C[C@@]1(CCCc3cc(Cl)ccc31)CO2, rcm bond, 1.5 h",4.76%
"COC[C@@H](O)C[C@@H]1[C@@H](C)C/C=C/[C@H](O)[C@@H]2CC[C@H]2CN2C[C@@]3(CCCc4cc(Cl)ccc43)COc3ccc(cc32)C(=O)NS1(=O)=O (single isomer, unassigned) [Example 672]",IC50,[2]; [4],0.193 nM
same,IC50,[3],286 nM
"O=C1NS(=O)(=O)CCC/C=C/[C@@H](OCc2nccs2)[C@@H]2CC[C@H]2CN2C[C@@]3(CCCc4cc(Cl)ccc43)COc3ccc1cc32 [Example 216, (1S,3′R,6′R,7′R,8′E)-6-chloro-7′-(1,3-thiazol-2-ylmethoxy)-3,4-dihydro-2H,15′H-spiro[naphthalene-1,22′-[20]oxa[13]thia[1,14]diazatetracyclo[14.7.2.0^3,6.0^19,24]pentacosa [8,16,18,24]tetraen]-15′-one 13′,13′-dioxide]",IC50,"[2]; TR-FRET, 0.1 nM Mcl-1 (171-327), 0.05 nM biotin-Bim (51-76)",9.77 nM
same,IC50,"[3]; Homo sapiens, OPM-2, 16 h",26200 nM
"C[C@@H]1[C@@H](C)C/C=C/[C@H](OCCN2CCC2)[C@@H]2CC[C@H]2CN2C[C@@]3(CCCc4cc(Cl)ccc43)COc3ccc(cc32)C(=O)NS1(=O)=O [Example 526, (1S,3′R,6′R,7′S,8′E,11′S,12′R)-7′-(2-(1-azetidinyl)ethoxy)-6-chloro-11′,12′-dimethyl-3,4-dihydro-2H,15′H-spiro[naphthalene-1,22′-[20]oxa[13]thia[1,14]diazatetracyclo[14.7.2.0^3,6.0^19,24]pentacosa [8,16,18,24]tetraen]-15′-one 13′,13′-dioxide 2,2,2-trifluoroacetic Acid]",IC50,[2]; [4],1.06 nM
same,IC50,"[3]; Homo sapiens, OPM-2, 16 h",862 nM
